# Data as given in US9417241B2, “5, 10, 15, 20-tetrakis (carboxyphenyl) porphine (TCPP) and kit for use with detecting cancer” (bioAffinity Technologies, Inc., priority 2000, dated 2016).
# System: sputum cells (dysplastic, pre-cancerous and cancerous cells)
# Assay: Glass slide assay for detection of pre-cancerous and cancerous cells with TCPP (fluorescence microscopy of sputum monolayer slides vs PAP-stain cytomorphology)
# Assay type: cell-based, human
# Settings: for Slides with morphology using TCPP/Slides with morphology using cytomorphology: N = 60 blinded sputum samples, 40 μg/mL TCPP
# [1] = of the six TCPP samples with class 11 designation
structure (smiles),measurement,setting,value
O=C(O)c1ccc(-c2c3nc(c(-c4ccc(C(=O)O)cc4)c4ccc([nH]4)c(-c4ccc(C(=O)O)cc4)c4nc(c(-c5ccc(C(=O)O)cc5)c5ccc2[nH]5)C=C4)C=C3)cc1 [TCPP],Number of Samples with Cells having Numerical Description by TCPP Fluorescence Microscopy/Number of Samples with Cell Description by Cytmorphology,"9 = Degenerated cell clusters, medium to high fluorescence, Moderate dysplasia (n = 9)",0/9
same,Number of Samples with Cells having Numerical Description by TCPP Fluorescence Microscopy/Number of Samples with Cell Description by Cytmorphology,"9 = Degenerated cell clusters, medium to high fluorescence, Negative or metaplastic (n = 10)",0/10
same,Number of Samples with Cells having Numerical Description by TCPP Fluorescence Microscopy/Number of Samples with Cell Description by Cytmorphology,"9 = Degenerated cell clusters, medium to high fluorescence, Severe dysplasia (n = 8)",0/8
same,Number of Samples with Cells having Numerical Description by TCPP Fluorescence Microscopy/Number of Samples with Cell Description by Cytmorphology,"10 = Cells uniform size with small round nucleus, medium fluorescence (nucleus only), Adenicarcinoma, squamous cell and small cell carcinoma (n = 10)",2/10
same,Number of Samples with Cells having Numerical Description by TCPP Fluorescence Microscopy/Number of Samples with Cell Description by Cytmorphology,"10 = Cells uniform size with small round nucleus, medium fluorescence (nucleus only), Carcinoma in situ (n = 11)",1/11
same,Number of Samples with Cells having Numerical Description by TCPP Fluorescence Microscopy/Number of Samples with Cell Description by Cytmorphology,"10 = Cells uniform size with small round nucleus, medium fluorescence (nucleus only), Mild dysplasia (n = 12)",2/12
same,Number of Samples with Cells having Numerical Description by TCPP Fluorescence Microscopy/Number of Samples with Cell Description by Cytmorphology,"10 = Cells uniform size with small round nucleus, medium fluorescence (nucleus only), Moderate dysplasia (n = 9)",2/9
same,Number of Samples with Cells having Numerical Description by TCPP Fluorescence Microscopy/Number of Samples with Cell Description by Cytmorphology,"10 = Cells uniform size with small round nucleus, medium fluorescence (nucleus only), Negative or metaplastic (n = 10)",2/10
same,Number of Samples with Cells having Numerical Description by TCPP Fluorescence Microscopy/Number of Samples with Cell Description by Cytmorphology,"10 = Cells uniform size with small round nucleus, medium fluorescence (nucleus only), Severe dysplasia (n = 8)",1/8
same,Number of Samples with Cells having Numerical Description by TCPP Fluorescence Microscopy/Number of Samples with Cell Description by Cytmorphology,"11 = Cell membrane barely visible, medium fluorescence, Adenicarcinoma, squamous cell and small cell carcinoma (n = 10)",0/10
same,Number of Samples with Cells having Numerical Description by TCPP Fluorescence Microscopy/Number of Samples with Cell Description by Cytmorphology,"11 = Cell membrane barely visible, medium fluorescence, Carcinoma in situ (n = 11)",2/11
same,Number of Samples with Cells having Numerical Description by TCPP Fluorescence Microscopy/Number of Samples with Cell Description by Cytmorphology,"11 = Cell membrane barely visible, medium fluorescence, Mild dysplasia (n = 12)",6/12
same,Number of Samples with Cells having Numerical Description by TCPP Fluorescence Microscopy/Number of Samples with Cell Description by Cytmorphology,"11 = Cell membrane barely visible, medium fluorescence, Moderate dysplasia (n = 9)",2/9
same,Number of Samples with Cells having Numerical Description by TCPP Fluorescence Microscopy/Number of Samples with Cell Description by Cytmorphology,"11 = Cell membrane barely visible, medium fluorescence, Negative or metaplastic (n = 10)",6/10
same,Number of Samples with Cells having Numerical Description by TCPP Fluorescence Microscopy/Number of Samples with Cell Description by Cytmorphology,"11 = Cell membrane barely visible, medium fluorescence, Severe dysplasia (n = 8)",2/8
same,Number of Samples with Cells having Numerical Description by TCPP Fluorescence Microscopy/Number of Samples with Cell Description by Cytmorphology,"12 = Nuclear debris clumps, no fluorescence, Adenicarcinoma, squamous cell and small cell carcinoma (n = 10)",0/10
same,Number of Samples with Cells having Numerical Description by TCPP Fluorescence Microscopy/Number of Samples with Cell Description by Cytmorphology,"12 = Nuclear debris clumps, no fluorescence, Carcinoma in situ (n = 11)",0/11
same,Number of Samples with Cells having Numerical Description by TCPP Fluorescence Microscopy/Number of Samples with Cell Description by Cytmorphology,"12 = Nuclear debris clumps, no fluorescence, Mild dysplasia (n = 12)",1/12
same,Number of Samples with Cells having Numerical Description by TCPP Fluorescence Microscopy/Number of Samples with Cell Description by Cytmorphology,"12 = Nuclear debris clumps, no fluorescence, Moderate dysplasia (n = 9)",0/9
same,Number of Samples with Cells having Numerical Description by TCPP Fluorescence Microscopy/Number of Samples with Cell Description by Cytmorphology,"12 = Nuclear debris clumps, no fluorescence, Negative or metaplastic (n = 10)",0/10
same,Number of Samples with Cells having Numerical Description by TCPP Fluorescence Microscopy/Number of Samples with Cell Description by Cytmorphology,"12 = Nuclear debris clumps, no fluorescence, Severe dysplasia (n = 8)",0/8
same,Number of Samples with Cells having Numerical Description by TCPP Fluorescence Microscopy/Number of Samples with Cell Description by Cytmorphology,"13 = Nuclear debris background, no fluorescence, Adenicarcinoma, squamous cell and small cell carcinoma (n = 10)",3/10
same,Number of Samples with Cells having Numerical Description by TCPP Fluorescence Microscopy/Number of Samples with Cell Description by Cytmorphology,"13 = Nuclear debris background, no fluorescence, Carcinoma in situ (n = 11)",5/11
same,Number of Samples with Cells having Numerical Description by TCPP Fluorescence Microscopy/Number of Samples with Cell Description by Cytmorphology,"13 = Nuclear debris background, no fluorescence, Mild dysplasia (n = 12)",5/12
same,Number of Samples with Cells having Numerical Description by TCPP Fluorescence Microscopy/Number of Samples with Cell Description by Cytmorphology,"13 = Nuclear debris background, no fluorescence, Moderate dysplasia (n = 9)",8/9
same,Number of Samples with Cells having Numerical Description by TCPP Fluorescence Microscopy/Number of Samples with Cell Description by Cytmorphology,"13 = Nuclear debris background, no fluorescence, Negative or metaplastic (n = 10)",6/10
same,Number of Samples with Cells having Numerical Description by TCPP Fluorescence Microscopy/Number of Samples with Cell Description by Cytmorphology,"13 = Nuclear debris background, no fluorescence, Severe dysplasia (n = 8)",2/8
same,Number of Samples with Cells having Numerical Description by TCPP Fluorescence Microscopy/Number of Samples with Cell Description by Cytmorphology,"14 = Nuclear debris background, medium fluorescence, Adenicarcinoma, squamous cell and small cell carcinoma (n = 10)",0/10
same,Number of Samples with Cells having Numerical Description by TCPP Fluorescence Microscopy/Number of Samples with Cell Description by Cytmorphology,"14 = Nuclear debris background, medium fluorescence, Carcinoma in situ (n = 11)",1/11
same,Number of Samples with Cells having Numerical Description by TCPP Fluorescence Microscopy/Number of Samples with Cell Description by Cytmorphology,"14 = Nuclear debris background, medium fluorescence, Mild dysplasia (n = 12)",2/12
same,Number of Samples with Cells having Numerical Description by TCPP Fluorescence Microscopy/Number of Samples with Cell Description by Cytmorphology,"14 = Nuclear debris background, medium fluorescence, Moderate dysplasia (n = 9)",2/9
same,Number of Samples with Cells having Numerical Description by TCPP Fluorescence Microscopy/Number of Samples with Cell Description by Cytmorphology,"14 = Nuclear debris background, medium fluorescence, Negative or metaplastic (n = 10)",1/10
same,Number of Samples with Cells having Numerical Description by TCPP Fluorescence Microscopy/Number of Samples with Cell Description by Cytmorphology,"14 = Nuclear debris background, medium fluorescence, Severe dysplasia (n = 8)",1/8
same,Avg. # numerical descriptions per cell examined,"Adenicarcinoma, squamous cell and small cell carcinoma (n = 10)",4.90
same,Slides with morphology using TCPP/Slides with morphology using cytomorphology,"Adenocarcinoma, squamous cell and small cell carcinoma",10/10
same,Avg. # numerical descriptions per cell examined,Carcinoma in situ (n = 11),4.82
same,Slides with morphology using TCPP/Slides with morphology using cytomorphology,Carcinoma in situ,11/11
same,Avg. # numerical descriptions per cell examined,Mild dysplasia (n = 12),3.08
same,Slides with morphology using TCPP/Slides with morphology using cytomorphology,Mild dysplasia,12/12
same,Avg. # numerical descriptions per cell examined,Moderate dysplasia (n = 9),4.11
same,Slides with morphology using TCPP/Slides with morphology using cytomorphology,Moderate dysplasia,9/9
same,Avg. # numerical descriptions per cell examined,Negative or metaplastic (n = 10),1.80
same,Slides with morphology using TCPP/Slides with morphology using cytomorphology,"Negative or metaplastic, 10 minutes, 36° C.",4/10
same,Avg. # numerical descriptions per cell examined,Severe dysplasia (n = 8),3.13
same,Slides with morphology using TCPP/Slides with morphology using cytomorphology,Severe dysplasia,8/8
same,Samples demonstrating the same morphology using the TCPP method,among the ten samples characterized as normal or metaplastic by PAP-staining,four
same,Sputum samples mildly dysplastic to cancerous by PAP-staining also identified as abnormal by TCPP detection,"blinded study, 60 samples",Fifty out of fifty
same,Average number of numerical classifications assigned,"cells displaying adenicarcinoma, squamous cell and small cell carcinoma",5
same,Average number of numerical classifications assigned,cells having a negative or metaplastic morphology,2
same,Samples also indicating fluorescence from nuclear debris (class 13 or 14),[1],three
same,Samples also showing class 10 designation (fluorescence from the nucleus only),[1],two
same,Samples designated with a class 11 cell description based on TCPP fluorescence,of the ten cell samples negative or metaplastic by PAP-staining,6
same,TCPP uptake,samples diagnosed as normal,minimal or no TCPP uptake
same,TCPP-exposed cells fluorescing at which the sample reliably correlated with at least the mildly dysplastic diagnosis,sputum monolayer slides,2-3%
